We go through 3 compounds from patent US20060167096A1, “Livestock products with an increased ppar/rxr heterodimer activator level” (priority 2003, published 2006).

Where two headings read alike, the source gives them in different places.

The test system of one series is laboratory animals. To be noted: Steinberg 1966, cited from earlier work.
Another series deals with Hybrid boars. The series is described as follows: Pork finishing trial with phytol sprayed feed. The class given is in vivo, pig. The protocol:
(§1) In the present specification the level of the PPAR/RXR heterodimer activator is expressed as a percentage of total FAME fatty acids. These total FAME fatty acids comprise those fatty acids with a linear chain of at least 12 carbons and are measured by the so-called FAME technique, which is well known for the skilled person and wherein, first, fatty acid methyl esters are prepared which are, subsequently, analysed via gas chromatography. The FAME procedure used for determining the results obtained by the present invention was as follows. Lipids were extracted from the samples using a dissolving solution that is specific to each sample type. Nonadecanoic acid (19:0) was added as an internal standard. The two-step methylation procedure consisted of using a basic reagent NaOH/methanol followed by an acid reagent HCI/methanol. The fatty acid methyl esters (FAME) were analyzed by GC (HP 6890, Hewlett-Packard, Brussels, Belgium) using a CP-Sil88 column for FAME (100 m×250 μm×0.25 μm) (Chrompack, Middelburg, The Netherlands). The GC conditions were as adapted to each sample type. Peaks were identified by comparison of retention times with those of the corresponding standards (Sigma, Botnew, Belgium; Nu-Chek-Prep, Elysian, M N). Identification of the peaks included fatty acids between 12:0 and 22:6 and 5 different CLA isomers and phytanic acid and pristanic acid.
Hybrid boars weighing in at about 80 kg were kept lege artis and fed a standard finishing granulated feed sprayed on with phytol at a level of 2% of feed weight. The feed was formulated and produced by Schatteman in Wetteren, Belgium and contained on average about 7% of humidity. On spraying, the feed readily absorbed this oily substance. […] Tissue samples were taken and the carcass quality assessed. The carcasses were further butchered in the usual fashion to chops, loins, sausages and the like and the meat quality of the prime cuts was assessed.
The quality was assessed objectively using the following parameters: % meat on the carcass, type-index, meat class, meat moisture, meat color, meat temperature and meat pH change.

The test system of a further series is ROSS 308 broiler chicks. Kind of series: Broiler feeding trial with phytol supplemented feed. Type of series: in vivo, chicken. To be noted: 42 days. The method, then: as §1
ROSS 308 broiler chicks were raised, lege artis, on an ad libitum diet, containing phytol at 2% by weight of feed that, characteristically, contains about 10% of humidity. The chicks consumed an average of about 0.1 kg dry weight of the feed per day. The phytol in the diet replaced 2% of the soybean oil included in feeds formulated based on the INVE Nutritional Requirement standard formula for a grower feed (formula 120). Please refer to the following tables for the feed formula and for its chemical composition.
The animals were slaughtered after 42 days and their tissues sampled for analysis.

In series [1] the test system is Tiger shrimp (Penaeus Monodon). Kind of series: Shrimp feeding trial with phytol supplemented diet. The class given is in vivo. To be noted: 2% phytol diet, 4 weeks.
In another series the test system is ISABROWN layers. Kind of series: Layer feeding trial with phytol supplemented feed. The note with it: 2% phytol in feed, compared with standard layer diet. The class given is in vivo.
The subject of another series is RXR. To be noted: cell research; Kitareewan 1996; cited from earlier work.
A further series addresses T1, PPAR alpha (Homo sapiens, UniProt Q07869).
T1 sequence (Q07869 1-468): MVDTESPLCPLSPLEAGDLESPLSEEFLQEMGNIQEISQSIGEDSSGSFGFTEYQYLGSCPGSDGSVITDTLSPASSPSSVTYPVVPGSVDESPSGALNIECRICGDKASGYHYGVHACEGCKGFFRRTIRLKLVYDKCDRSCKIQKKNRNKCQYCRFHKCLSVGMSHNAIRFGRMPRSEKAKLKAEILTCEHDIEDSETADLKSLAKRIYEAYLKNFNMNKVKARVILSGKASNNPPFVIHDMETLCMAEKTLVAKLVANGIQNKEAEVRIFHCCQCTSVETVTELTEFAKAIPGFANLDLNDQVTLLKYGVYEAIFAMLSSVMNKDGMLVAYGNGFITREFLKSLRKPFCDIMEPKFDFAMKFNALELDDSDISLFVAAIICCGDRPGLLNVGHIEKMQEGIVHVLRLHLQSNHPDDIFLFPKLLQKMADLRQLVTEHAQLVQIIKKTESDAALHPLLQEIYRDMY
The note with it: cited from earlier work.

The subject of the next series is Chicken meat. The note with it: max 1.5% CLA in diet, Szymczyk 2001; cited from earlier work.
The subject of a further series is Carp. To be noted: max 1% CLA in diet, Choi 1999; cited from earlier work.
The test system of the next series is egg yolk. The note with it: cited from earlier work.
For another series, the target named is T2, PPAR gamma (Homo sapiens, UniProt P37231).
T2 sequence (P37231 1-505): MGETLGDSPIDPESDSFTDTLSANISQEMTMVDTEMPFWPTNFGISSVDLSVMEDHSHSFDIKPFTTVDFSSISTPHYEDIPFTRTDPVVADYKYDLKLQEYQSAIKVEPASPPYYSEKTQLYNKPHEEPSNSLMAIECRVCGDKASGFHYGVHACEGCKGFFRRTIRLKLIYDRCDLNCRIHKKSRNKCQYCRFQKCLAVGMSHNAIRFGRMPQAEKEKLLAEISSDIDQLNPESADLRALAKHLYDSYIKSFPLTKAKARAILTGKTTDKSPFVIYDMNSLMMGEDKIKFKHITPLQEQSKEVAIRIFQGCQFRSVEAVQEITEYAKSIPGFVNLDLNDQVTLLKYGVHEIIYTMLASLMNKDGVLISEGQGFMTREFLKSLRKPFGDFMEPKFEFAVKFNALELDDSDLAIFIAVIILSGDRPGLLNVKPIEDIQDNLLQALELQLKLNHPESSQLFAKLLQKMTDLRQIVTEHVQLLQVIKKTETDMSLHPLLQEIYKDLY
The note with it: Houseknecht 1998, Yu 2002; cited from earlier work.

In another series the test system is lean pork. To be noted: cited from earlier work.
For the next series, the system named is yellow perch. To be noted: max 0.6% CLA in diet, Twibell 2001; cited from earlier work.
For the next series, the system named is striped bass. The note with it: max 0.6% CLA in diet, Twibell 2000; cited from earlier work.

Turning to `C/C(=C\CO)CCC[C@H](C)CCC[C@H](C)CCCC(C)C` [phytol], the “morbidity (growth retardation, weight loss and lethargy)” value in the series on laboratory animals (from levels of supplementation of 1% of diet weight on) is reported as “substantial morbidity”. Moreover, in the series on laboratory animals (levels of 5% of diet weight), the mortality result is listed as “serious mortality rates”. The sickness or death entry in the series with Hybrid boars (2% phytol feed, entire finishing period) is “no animals got sick or died”. The “content of PhA and PrA in the pork meat” value in the series with Hybrid boars (male, hybrid, pig, in vivo, 1 month) was 2.3 % of total FAME fatty acids. Further, the “feeding behavior or level of activity” value in the series on Hybrid boars (pig, in vivo) was “no difference”. Further, the mortality or morbidity result with ROSS 308 broiler chicks (2% phytol in feed, compared with standard broiler feed) is reported as “no difference”. Besides, in the series with ROSS 308 broiler chicks (ROSS 308, chicken, in vivo), the “PhA average level in breast meat” value is reported as 2.6 % of total fatty acids; the “content of PhA in the breast meat, one subgroup” value was “around 1.9%”; the “content of PhA in the breast meat, other subgroup” value is “around 3.6%”. The survival rate entry in series [1] (vs standard diet) is given as “no difference”. Also, the “growth (weight at end of feeding trial)” value in [1] (start 0.7 g) is given as 2.05 g. For the same compound, the mortality nor morbidity entry with ISABROWN layers is “no difference”.
For the compound `CC(C)CCC[C@@H](C)CCC[C@@H](C)CCCC(C)CC(=O)O` (some centres unmarked) [PhA, tetramethylhexadecanoic acid], the RXR ligand result in the series on RXR is listed as “ligand of RXR”. Besides, the PPAR alpha activation result on PPAR alpha (physiologic concentrations, Ellinghaus 1999) is reported as “potent activator of PPAR alpha”.
conjugated linoleic acid [CLA]: the “max of TFA (maximum level of CLA in product as percent of total fatty acids)” value was 10.27% with Chicken meat; 13% in the series on Carp; 7.95% in the series with egg yolk (max 2% CLA in diet, Shafer 2001); 5.3% in the series with egg yolk (max 3% CLA in diet, Raes 2002); 11.2% in the series with egg yolk (max 5% CLA in diet, Chamruspollert 1999); 0.7% in the series on lean pork (lean pork (>100 kg), max 1% CLA in diet, Thiel-Cooper 2001). Besides, the “max of TFA (maximum level of CLA in product as percent of total fatty acids)” value was 1.6% with lean pork (lean pork (>100 kg), max 5% CLA in diet, Joo 2002); 3.2% with lean pork (lean pork (up to 55 kg), max 1.4% CLA in diet, Ramsey 2001); 2.92% in the series with yellow perch; 8.1% in the series on striped bass. In addition, the PPAR gamma agonism entry at PPAR gamma is given as “agonist of PPAR gamma”. Moreover, the PPAR alpha agonism result on PPAR alpha (Moya-Camarena 1999) is “agonist of PPAR alpha”.
